Reference: patent US20100041972A1, “APPARATUS AND METHODS” (priority 2006, published 2010)

Legend:
rat dorsal raphe = experiment: MEA recording of neuronal firing in rat dorsal raphe slice; assay type: cell-based; conditions: channels 34, 43, 48 and 57; heterogeneity noted
Method: Wistar rats or mice obtained from Charles River were sacrificed by cervical dislocation. The brain was rapidly removed and a block of tissue containing the relevant area was prepared. Brain tissue was glued onto a glass slide using cyanoacryalate glue (Permabond C2). The block was supported by a similar sized block of agar (3% in NaCl, 126 mM) glued immediately behind the brain block. Coronal slices (300 μm thick) of the relevant brain slice were cut from the brain using a Vibratome™ (Oxford Instruments, supplied by Intracel, Unit 4, Station Road, Shepreth, Royston. Herts. UK). The slices were transferred to artificial cerebrospinal fluid (ACSF) which contained (in mM): NaCl 126, KCl 5, NaH2PO4 1.24, CaCl2 2.4, MgCl2 1.3, NaHCO3 26, glucose 10, at pH 7.4, continuously bubbled with ‘carbogen’ (95% O2/5% CO2) and maintained at room temperature. […]
Extracelular action potentials were recorded from either isolated neurones, or several neurones per electrode. […]
All spike waveforms or LFP ‘events’ that crossed a pre-set voltage threshold (−12 and −8 pV respectively) were stored as both ‘time-stamps’ (i.e. ‘time of occurrence’), and as ‘spike cut-outs’ (i.e. digitised waveform prior to, and after threshold crossing). All experimental data were recorded directly on to hard disk, and backed up onto various means of data archiving. […]

[1] = system: olfactory bulb mitral cells; experiment: Acute in vivo MEA recording of odour response in olfactory bulb; parameters: species or system male Wistar rats; conditions: odour at 5.42×10^−6 M in breathing air, urethane anaesthesia
Text: Multi-electrode array recordings from olfactory bulb mitral cells (5×5 array). 1. Spontaneous population burst. 2. Control, no odour. 3. Arnyl acetate. 4. N-butanol. 5. Cineole. 6. Pinene. 7. DL-Camphor. 8. Linalool (max response). 9. Linalool “off response”. […] The results are shown as peak odour response neuronal activity maps in olfactory bulb. These records were from male Wistar rats (400 g) anaesthetized with urethane and secured in a stereotaxic unit). The NeuroZonds MEAs of the invention penetrated the left olfactory bulbs horizontally (after left enucleation). The odours were presented in the animals breathing air under the control of the normal breathing cycle (detected by thermistor probe in mask), diluted from stock in pure nitrogen. The concentrations of odourants were determined according to the relative saturation vapour pressures of the odourants at particular temperatures via a custom-built ‘olfactometer’.

Row | Molecule | neuronal firing, effect of XE-991 after retigabine (rat dorsal raphe) | spatiotemporal dynamics of odour response [1]
1 | O=C1c2ccccc2C(Cc2ccncc2)(Cc2ccncc2)c2ccccc21 [XE-991] | recovery of retigabine inhibition | 
2 | pinene |  | marked “off response”
